# Laboratory results taken from patent US20170044152A1, “COMPOUNDS THAT MODULATE INTRACELLULAR CALCIUM” (CalciMedica, Inc., priority 2012, published 2017).
# pIC50: −log10 of the molar value. Where two headings read alike, the source gives them in different places.
# Legend:
# Format in all cases: cell-based
# [1] = system: JR251; assay: JR251 IC50 (Table v)
# [2] = system: RBL-2H3 cells; assay: Fluorescence-based assay of store-operated calcium entry in RBL-2H3 cells; conditions: Rattus norvegicus; for pIC50: thapsigargin, Upslope of fluo-4 signal, read-out: RBL-2H3 (IC50, μmol)
# Protocol: B. Fluorescence-based Assay of Store-Operated Calcium Entry in RBL-2H3 Cells.
# RBL-2H3 cells are obtained from ATCC and maintained in complete medium with 10% FBS at 37° C./6% CO2.
# The day prior to performing the assay, RBL-2H3 cells are plated in 50 μL of complete medium in a 384 well plate. Cells are grown at 37° C./6% CO2 overnight and grow to 50-60% confluence by the next day. On the assay day, 1.5 μM Fluo-4-AM dye (Invitrogen) in complete medium is added and incubated for 1 hour at RT. Cells are washed twice in Ca^2+-free HBSS buffer and 35 μL Ca^2|-free HBSS buffer is added to each well. 10 μL of a test compound prepared in a Ca^2+-free HBSS solution at […] of the desired concentration is added to a well and incubated for 5 minutes at RT. 10 μL of thapsigargin prepared in a Ca^2+-free HBSS solution at 5.5× of the desired concentration (5.5 uM) is added to each well and incubated for an additional 25 minutes. The initial baseline fluorescence signal is measured with a FLIPR^384 (Molecular Devices) plate reader. 5 μL of 12× calcium in HBSS (12 mM) is added and changes in cellular fluorescence arc measured with the FLIPR^384 plate reader. In each well, the change in the fluorescent signal as a function of time due to calcium entry into the cell is determined by calculating the difference between the fluorescent signal measured 7 seconds after calcium addition and the initial baseline fluorescence signal at time zero (t=0). This parameter is designated Upslope. The IC50 value is calculated as the concentration at which 50% of the Upslope is inhibited.
# [3] = biological target: T1, Orai1/STIM1 (Homo sapiens, UniProt Q96D31); assay: Fluorescence-based assay of store-operated calcium entry in Orai1/STIM1 stable cells; conditions: HEK-293 cells stably expressing human STIM1 and Orai1; Peak-Basal fluo-4 signal; Table iv; read-out: Orai1/STIM1 (IC50, μmol)
# T1 construct: c-myc (C); expressed in transfected cells; host or cells: HEK-293 cells stably overexpressing human STIM1, stably transfected with pcDNA3.1-Orai1-cmyc
# Protocol: A. Fluorescence-based Assay of Store-Operated Calcium Entry in Orai1/STIM1 Stable Cells.
# Cells stably expressing recombinant human STIM1 and Orai1 are generated by transfecting a human Orai1 expression plasmid (pcDNA3.1-Orai1-cmyc) into HEK-293 cells stably overexpressing human ST1M1 (Roos et al. 2005 JCB 169(3): 435-445). Colonies of cells stably expressing both STIM1 and Orai1 proteins are selected and then subcloned by limiting dilution. Cells were cultured at 37° C./6% CO2 in complete medium with 10% FBS and appropriate selection markers.
# The day prior to performing the assay Orai1/STIM1 stable cells are plated in 50 μL of complete medium at 90-95% confluence in a 384 well plate. Cells are grown at 37° C./6% CO2 overnight. […] The initial baseline fluorescence signal is then measured with a FLIPR^384 (Molecular Devices) plate reader. Calcium entry is initiated by adding 5 μl of 10× CaCl2 (10 mM) in HBSS, and changes in cellular fluorescence are measured with the FLIPR^384 plate reader. In each well, the magnitude of the fluorescence signal as a result of calcium entry into the cell is determined by calculating the difference between the peak fluorescence signal measured after calcium addition and the initial baseline fluorescence signal (designated Peak-Basal). […]
# T1 sequence (Q96D31 whole entry): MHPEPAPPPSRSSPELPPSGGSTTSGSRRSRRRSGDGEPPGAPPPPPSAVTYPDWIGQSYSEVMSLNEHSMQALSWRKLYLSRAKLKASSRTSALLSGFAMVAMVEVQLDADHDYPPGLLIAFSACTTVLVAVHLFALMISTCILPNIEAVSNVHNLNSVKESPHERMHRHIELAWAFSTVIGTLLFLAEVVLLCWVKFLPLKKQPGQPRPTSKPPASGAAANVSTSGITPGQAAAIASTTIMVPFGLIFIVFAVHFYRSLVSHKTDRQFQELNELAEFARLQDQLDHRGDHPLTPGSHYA
pIC50 ([2]; Table iv),pIC50 ([2]; Table iii),Compound,other results
–,–,"C=Cn1nc(-c2nccs2)cc1-c1ccc(NC(=O)c2c(F)cccc2F)s1 [Compound 5, (2,6-difluorophenyl)-N-[5-(3-(1,3-thiazol-2-yl)-1-vinylpyrazol-5-yl](2-thienyl)] carboxamide]","IC50 [1]: 1210 nM; IC50 ([2]; Table v, read-out: IC50 (nM) RBL): 106 nM"
> 6.22,–,"Cn1nc(-c2nccs2)cc1-c1ccc(NC(=O)c2c(F)cccc2F)s1 [Compound 6, (2,6-difluorophenyl)-N-[5-[1-methyl-3-(1,3-thiazol-2-yl)pyrazol-5-yl](2-thienyl)] carboxamide]",–
> 6.22,–,"Cn1nc(-c2nccs2)cc1-c1ccc(NC(=O)c2ccc(F)cc2F)s1 [Compound 7, (2,4-difluorophenyl)-N-[5-[1-methyl-3-(1,3-thiazol-2-yl)pyrazol-5-yl](2-thienyl)] carboxamide]",–
> 6.22,–,"Cn1nc(-c2nccs2)cc1-c1ccc(NC(=O)c2c(F)cc(F)cc2F)s1 [Compound 10, (2,4,6-trifluorophenyl)-N-[5-[1-methyl-3-(1,3-thiazol-2-yl)pyrazol-5-yl](2-thienyl)] carboxamide]",–
–,> 6.22,"Cc1oc(C(F)(F)F)nc1-c1ccc(NC(=O)c2c(F)cccc2F)nc1 [Compound 14, 2,6-difluoro-N-(5-(5-methyl-2-(trifluoromethyl)oxazol-4-yl)pyridin-2-yl)benzamide]",–
> 6.22,–,CCn1nc(-c2nccs2)cc1-c1ccc(NC(=O)c2c(F)cccc2F)s1 [Compound 15],–
–,> 6.22,Cc1ccccc1C(=O)Nc1ccc(-c2nc(C(F)(F)F)oc2C)cn1 [Compound 15],–
> 6.22,–,CCn1nc(-c2nccs2)cc1-c1ccc(NC(=O)c2c(F)cc(F)cc2F)s1 [Compound 16],–
–,> 6.22,Cc1oc(C(F)(F)F)nc1-c1ccc(NC(=O)c2ccccc2F)nc1 [Compound 16],–
–,> 6.22,"Cc1oc(C(F)(F)F)nc1-c1ccc(NC(=O)c2c(F)cncc2F)nc1 [Compound 17, 3,5-difluoro-N-(5-(5-methyl-2-(trifluoromethyl)oxazol-4-yl)pyridin-2-yl)isonicotinamide]",–
–,> 6.22,"Cc1oc(C(F)(F)F)nc1-c1ccc(NC(=O)c2cccc(F)c2C)nc1 [Compound 19, 3-fluoro-2-methyl-N-(5-(5-methyl-2-(trifluoromethyl)oxazol-4-yl)pyridin-2-yl)benzamide]",–
> 6.22,–,Cc1cccc(F)c1C(=O)Nc1ccc(-c2cc(-c3ccccc3F)nn2C)s1 [Compound 23],pIC50 [3]: 5.92 to 6.22
–,> 6.22,"CCc1oc(C(F)(F)F)nc1-c1ccc(NC(=O)c2ccccc2F)nc1 [Compound 24, N-(5-(5-ethyl-2-(trifluoromethyl)oxazol-4-yl)pyridin-2-yl)-2-fluorobenzamide]",–
–,> 6.22,"CCc1oc(C(F)(F)F)nc1-c1ccc(NC(=O)c2c(F)cccc2F)nc1 [Compound 25, N-(5-(5-ethyl-2-(trifluoromethyl)oxazol-4-yl)pyridin-2-yl)-2,6-difluorobenzamide]",–
> 6.22,–,"Cn1nc(-c2ccccn2)cc1-c1ccc(NC(=O)c2c(F)cc(F)cc2F)s1 [Compound 27, 2,4,6-trifluoro-N-(5-(1-methyl-3-(pyridin-2-yl)-1H-pyrazol-5-yl)thiophen-2-yl)benzamide]",–
> 6.22,–,"Cn1nc(-c2ccccn2)cc1-c1ccc(NC(=O)c2c(F)cccc2F)s1 [Compound 28, 2,6-difluoro-N-(5-(1-methyl-3-(pyridin-2-yl)-1H-pyrazol-5-yl)thiophen-2-yl)benzamide]",–
